This is an account of results in PubChem BioAssay (NCI).

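Each compound was tested at five concentrations against cells in 96-well plates for 48 hours. GI50 marks 50% less growth. TGI marks complete inhibition of growth.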 Some results are limits rather than exact numbers.

Holding throughout (assay): inhibition of tumour cell growth, NCI panel, 48 h
For assay [1], the system named is NCI-H460 lung.
The test system of assay [2] is EKVX NSCLC.
Assay [3] concerns LOX IMVI melanoma.
For assay [4], the system named is OVCAR-3 ovarian.
Assay [5] relates to ACHN renal.
Assay [6] relates to NCI-H23 lung.
The test system of assay [7] is SF-539 CNS.
Assay [8] relates to HCT-116 colon.
For assay [9], the system named is RPMI-8226 leukemia.
Assay [10] concerns NCI-H522 lung.

In the case of `CCCN1CCN(c2ccc3nc(-c4ccc5nc(-c6ccc(OCC)c(OCC)c6)[nH]c5c4)[nH]c3c2)CC1`, the GI50 in assay [1] was 0.387 µM; in [2], 1.4 µM; in [3] it was 0.198 µM; in [4], 0.258 µM; in [5], 1 µM; in [6], 0.251 µM. The GI50 is 0.724 µM in assay [7], 0.218 µM in [8] and 0.387 µM in assay [9]. Also, the TGI in assay [1] stood at 1.35 µM; in assay [2] it was 7.72 µM; in assay [3], 0.461 µM; in [4] it was 0.622 µM; in [5], 2.6 µM; in assay [6], 0.765 µM. Besides, the TGI stood at 2.05 µM in assay [7], 1.19 µM in assay [8] and 1.89 µM in [9].

`C[n+]1ccc(-c2c3nc(c(-c4ccc5c(ccc[n+]5C)c4)c4ccc([nH]4)c(-c4cc[n+](C)cc4)c4nc(c(-c5ccc6c(ccc[n+]6C)c5)c5ccc2[nH]5)C=C4)C=C3)cc1`: the GI50 in [1] was 16.9 µM; in assay [2], above 50 µM; in [10], above 50 µM; in assay [3], above 50 µM; in [4], 7.91 µM; in assay [5], 27.9 µM. Besides, the GI50 in assay [6], in assay [8] and in assay [9] was above 50 µM each time. Also, the TGI in assay [1] was above 50 µM; in [2], above 50 µM; in assay [10], above 50 µM; in assay [3], above 50 µM; in assay [4], 40.5 µM; in assay [5] it was above 50 µM. Also, the TGI in assay [6], in assay [8] and in assay [9] was above 50 µM in each case.

Take `O=C(c1ccc2c3c(ccc(C(=O)C(F)(F)F)c13)CC2)C(F)(F)F`: the TGI is above 100 µM in assay [1]; above 100 µM in assay [2]; 98.9 µM in assay [10]; above 100 µM in assay [3]; above 100 µM in assay [4]; above 100 µM in [5]. The TGI in assay [6], in assay [7] and in assay [8] was above 100 µM in each case.

As for `Oc1cc2c(cc1O)-c1[nH]ncc1CC2`, the TGI in [1] is above 100 µM; in assay [2], 61.1 µM; in assay [10], 25.5 µM; in assay [3], above 100 µM; in assay [5], above 100 µM; in assay [6], above 100 µM. Further, the TGI in assay [7] and in assay [8] was above 100 µM in each case.

`O=CC1(C2(C=O)c3ccccc3-c3ccccc32)c2ccccc2-c2ccccc21`: the GI50 is 1.56 µM in assay [1]; 1.96 µM in [2]; 2.01 µM in assay [10]; 1.89 µM in [3]; 1.4 µM in assay [4]; 1.83 µM in assay [5]. For the same molecule, the GI50 was 2.11 µM in [6] and 2.01 µM in [7]. The TGI is 2.85 µM in assay [1]; 5.24 µM in assay [2]; 4.38 µM in assay [10]; 3.98 µM in assay [3]; 3.39 µM in [4]; 4.19 µM in assay [5]. Besides, the TGI in assay [6] amounted to 4.82 µM; in [7], 4.37 µM.

Take `Cc1nc2cc(N)c(Cl)cc2[nH]1`: the TGI in [1], in assay [2], in assay [10], in assay [3], in assay [4] and in assay [5] was above 100 µM in each case. In addition, the TGI in [6], in assay [8] and in assay [9] was above 100 µM throughout.

Take `O=C(O)C1OC(Oc2cc(O)c3c(=O)cc(-c4ccc(O)cc4)oc3c2)C(O)C(O)C1O` (stereo unspecified): the TGI in [1], in assay [2], in [10], in [3], in assay [4] and in [5] was above 100 µM in each case. The TGI in [6], in assay [7] and in [8] was above 100 µM throughout.

Turning to `CSc1nc2c(c(=O)[nH]1)C(c1ccc(Cl)cc1)C1=C(N2)/C(=C/c2ccc(Cl)cc2)CNC1` (stereo unspecified), the GI50 was 2.75 µM in [1]; 1.85 µM in assay [10]; 1.9 µM in assay [3]; 2.23 µM in [4]; 1.81 µM in assay [5]; 2.48 µM in assay [6]. In addition, the GI50 in [7] is 1.78 µM; in [8], 1.72 µM; in [9] it was 0.629 µM. Also, the TGI came out at 7.61 µM in assay [1]; 4.81 µM in [10]; 3.81 µM in assay [3]; 5.19 µM in assay [4]; 3.86 µM in assay [5]; 5.84 µM in assay [6]. Besides, the TGI in [7] turned out to be 3.5 µM; in [8] it was 3.55 µM; in assay [9], 3.14 µM.

Regarding `C/C(=N\NC(=O)c1ccncc1)c1ccc(O)cc1O`, the GI50 in assay [1] is 5 µM; in assay [2], 2.56 µM; in assay [3], 3.46 µM; in [4] it was 4.59 µM; in assay [5] it was 4.48 µM; in assay [6] it was 11.4 µM. Also, the results for the GI50 in assay [7], in [8] and in [9] were 5.67 µM, 3.16 µM and 31.5 µM, respectively. The TGI in assay [1], in [2], in assay [3], in assay [4], in assay [5] and in assay [6] was above 100 µM each time. Moreover, the TGI in assay [7], in assay [8] and in assay [9] was above 100 µM throughout.

Consider `COc1cc2c3c(n(CCCCl)c(=O)c2cc1OC)-c1ccc(C#N)cc1C3=O`, for which the GI50 in [1] is 10.8 µM; in assay [2], 7.99 µM; in [10] it was 6.63 µM; in assay [3] it was 3.43 µM; in assay [4], 12.9 µM; in assay [6], 8.38 µM. Also, the values for the GI50 in assay [7], in assay [8] and in assay [9] were 7.18 µM, 15.2 µM and 3.97 µM, respectively. The TGI in [1] is above 100 µM; in assay [2] it was 67.6 µM; in assay [10] it was 59.2 µM; in [3] it was 19.4 µM; in assay [4] it was 30.1 µM; in assay [6], 20.9 µM. Besides, the results for the TGI in assay [7], in assay [8] and in assay [9] were 28.2 µM, above 100 µM and above 100 µM, respectively.
